Test results: US9744250B2, “Chemical model of a neurodegenerative disease, method for preparation and uses of same” (priority 2012, dated 2017)

Tests used:
complex I = assay: Complex I activity of mitochondria from striata of exposed mice; type: in vivo, mouse; conditions: 20 mg/kg/day oral 7 days, 30 days after end of exposure
Procedure: The kinetics of the oxidation reaction of NADH into NAD+ at 340 nm at 37° C. were continuously monitored by spectrophotometry using a JASCO V-530 spectrophotometer or a TECAN 1000M Infinite plate reader, set to a wavelength of 340 nm for 3 min. The amount of mitochondria extract to obtain the maximum activity introduced into the reaction volume was 100 μg with the spectrophotometer and 10 μg with the reader. Each manipulation must be done at substrate saturation, which is an NADH concentration of 160 μM. Mitochondria previously divided into multiple aliquots were frozen, then quickly thawed a few minutes before use. In a first step, the mitochondria extract was introduced into the hypotonic buffer (50 mM KH2PO4 and 10 mM MgCl2, pH=7.2 at 37° C.) for 2 minutes to break open the mitochondrial membranes and access the respiratory chain (Chretien et al., Biochem Biophys Res Commun, 2003, 301(1):222-4). […] The slope of the kinetics was then measured. […] The inhibition percentage was then calculated. […]
For each mouse sacrificed, cortex and striatum samples had been previously collected and processed to extract the mitochondria. The activity of the mitochondrial respiratory chain and of complex I were determined as described in Part B above, in the “Materials and Methods” subsection (without addition of furosemide pyridinium or an analog to the medium).

[1] = Cell viability test in MTT; type: cell-based, human; conditions: human, SH-SY5Y neuroblastoma cells, 96 h of incubation, read-out: reduction of cell viability
Procedure: (§1) Cells from SH-SY5Y human neuroblastomas were cultured in a DMEM medium containing 4.5 g·L^−1 glucose, 10% fetal calf serum, and 1% penicillin/streptomycin, and placed in an incubator at 37° C. with 7% CO2.
(§2) In the various experiments, the SH-SY5Y cells were seeded at a density of 4×10^4 cells/mL. 24 h after seeding, the cells were exposed to the various test compounds at 37° C. for 24 h, 48 h, 72 h, or 96 h.
(§3) This test consisted of rapidly measuring cellular metabolic activity in the presence of the study compound at different concentrations, in order to conduct a dose-response study. To do this, the tetrazolium salt MTT, 3-(4,5-dimethylthiazol-2-yl)-2,5-diphenyltetrazolium bromide (Amoroso et al., Biochim Biophys Acta, 1999, 1452(2):151-60), was placed in contact with the cells. MTT is reduced to formazan by living cells that have the capacity to metabolize it, unlike dead cells. To conduct this test, SH-SY5Y neuronal cells in 48-well plates were incubated for 24 h, 48 h, 72 h, and 96 h, with furosemide pyridinium at concentrations ranging from 0 to 1000 μM. Then MTT (0.5 mg/ml final) was added to each well and incubated at 37° C. for 2 h. At the end of incubation, after carefully removing the medium, DMSO was added (200 μL) to dissolve the cell membranes and the formazan crystals formed by the living cells. The toxicity of the molecule was evaluated by determining the amount of reduced MTT, doing so by measuring the absorbance at 550 nm as this value is proportional to the number of living cells. The results were expressed as a function of the values obtained for cells treated only with the solvent used to dissolve the compound of interest. To compare the toxicity of furosemide pyridinium to that of MPP+, the cells were incubated in the presence of MPP+ (0 to 1000 μM) for 6 h. The culture medium was replaced and the cells were incubated at 37° C. for an additional 24 h (no MPP+). Cell survival was measured at the end of these 24 hours of incubation as described above. When evaluating the effect of different concentrations of α-tocopherol (vitamin E), a membrane antioxidant, the cells were pretreated for 24 h with this antioxidant before being exposed to furosemide pyridinium at a concentration of 0.5 mM under the same experimental conditions as above.

SH-SY5Y neuronal cells = assay: Cell viability test in MTT; type: cell-based, human
Procedure: as §1, §2, §3

rats = assay: Lethality of 7-day oral administration in rats; type: in vivo, rat; conditions: daily dose of 20 mg/kg for seven days
Procedure: (§4) A platform for electrophysiological and behavioral monitoring of the rats was used. For this, a subcutaneous implant (Data Science) was placed in the rats which allowed the EEG to be recorded by telemetry, leaving the animal completely free to move about. The cage was equipped with a video camera (10 frames per second) and an infrared light to allow recordation of the animal's activity. The EEG and video sequences were recorded in sequences of 10 seconds, and a set of variables was calculated for each sequence. The use of dedicated software allowed integration of these variables over the entire recording to detect changes in the animal's activity, EEG, and circadian rhythms. Each animal served as its own control because it was recorded for 5 days prior to furosemide pyridinium administration. The solution of furosemide pyridinium (20 mg) was dissolved in dimethylsulfoxide (DMSO, 200 μl) and then diluted with water (50 ml). The solution was replaced every day and administered for 7 days in the drinking water at a dose of 20 mg/kg. The rats were then sacrificed 5 weeks after the last dose. The rats were anesthetized with pentobarbital and infused intracardially with saline ([…]), then fixed with 4% paraformaldehyde. After the infusion, the brain was removed and placed in NaCl (0.9%) at 4° C. The brain was frozen in Tissue Tek immersed in a cold isopentane bath. […]

Sprague Dawley rats = assay: EEG and sleep/arousal telemetry monitoring of exposed rats; type: in vivo, rat; conditions: 20 mg/kg/day oral 7 days
Source text: (§5) Male albino Sprague Dawley rats (adults weighing […]) were housed in a temperature-controlled room with free access to food and water.
A platform for electrophysiological and behavioral monitoring of the rats was used. For this, a subcutaneous implant (Data Science) was placed in the rats which allowed the EEG to be recorded by telemetry, leaving the animal completely free to move about. The cage was equipped with a video camera (10 frames per second) and an infrared light to allow recordation of the animal's activity. The EEG and video sequences were recorded in sequences of 10 seconds, and a set of variables was calculated for each sequence. The use of dedicated software allowed integration of these variables over the entire recording to detect changes in the animal's activity, EEG, and circadian rhythms. Each animal served as its own control because it was recorded for 5 days prior to furosemide pyridinium administration. The solution of furosemide pyridinium (20 mg) was dissolved in dimethylsulfoxide (DMSO, 200 μl) and then diluted with water (50 ml). The solution was replaced every day and administered for 7 days in the drinking water at a dose of 20 mg/kg. The rats were then sacrificed 5 weeks after the last dose. The rats were anesthetized with pentobarbital and infused intracardially with saline ([…]), then fixed with 4% paraformaldehyde. After the infusion, the brain was removed and placed in NaCl (0.9%) at 4° C. The brain was frozen in Tissue Tek immersed in a cold isopentane bath. Coronal sections of eight microns were obtained using a cryostat and were processed for immunocytochemistry (labeling the alpha-synuclein).

[2] = tested on: alpha-synuclein in the striata; assay: Immunolabeling of alpha-synuclein in coronal striatum sections of exposed rats; type: in vivo, rat; conditions: 20 mg/kg/day oral 7 days, sacrificed 5 weeks after last dose
Source text: as §5
as §4, with “paraformaldehyde.” for “paraformaldehyde. After the infusion, the brain was removed and placed in NaCl (0.9%) at 4° C. The brain was frozen in Tissue Tek immersed in a cold isopentane bath.”

NS(=O)(=O)c1cc(C(=O)[O-])c(-[n+]2cccc(O)c2)cc1Cl [furosemide pyridinium, 4-chloro-2-(3-hydroxypyridinium-1-yl)-5-sulfamoylbenzoate]
decrease in activity of complex I of striatal mitochondria vs control animals (complex I): 49%
cytotoxicity at 96 h [1]: ~60%
decrease in cell survival (SH-SY5Y neuronal cells; 0.5 mM, 96 h): about 20%
effect on cell survival (SH-SY5Y neuronal cells; 24 h of incubation, even at 1 mM): no significant effect
EC50 (SH-SY5Y neuronal cells; Homo sapiens, 96 h of incubation, estimated, read-out: EC50 (cell survival)): 973 µM
lethality (rats): not lethal
increase in number of REM sleep phases (Sprague Dawley rats; five weeks after end of exposure): 2 ×
sleep and arousal phases (Sprague Dawley rats; five weeks after end of treatment): do not indicate changes
amplitude of the electroencephalogram (Sprague Dawley rats; five weeks after end of treatment vs before exposure): significant decrease
alpha-synuclein in the striata (immunolabeling) [2]: significant increase
